The values that follow come from a melting point compilation (Tetko et al.; mined from patent text by program, amines drawn as free bases though some values may be those of a salt).

Broadly, the melting point is the temperature, or range, at which the solid turns liquid.

Molecules are shown by their SMILES.

Take `Cc1ccc(C(C#N)(Cc2c[nH]cn2)c2ccccc2)cc1` (centres undefined): the melting point fell in the range of 188 to 193 °C. In turn, `Cc1nc(NC(=O)c2cccc(S(C)(=O)=O)c2)sc1C(=O)NCc1ccccc1` displayed a melting point of 111 to 113 °C. `O=C(CCCCCCCCCCCCC(=O)ON1C(=O)CCC1=O)OCc1ccccc1` yielded a melting point of 61.5 to 62.5 °C. Next, `CCc1nc2c(c(C)c(C)n3nnnc23)n1CCOCCNS(C)(=O)=O`: 216 to 218 °C. Regarding `O=C(c1ccccc1)C1CCCc2cccnc21` (centres undefined), the melting point lay within 205 to 207 °C. The same measure for `CCCCCc1ccc2cc(O)ccc2c1`: 94 to 95 °C; for `CC(=O)Nc1c([N+](=O)[O-])c(Br)nn1-c1c(Cl)cc(C(F)(F)F)cc1Cl`: 179 to 180 °C. Turning to `CCOC(=O)c1cnc2ccc(-c3ccc(Cl)cc3)cn12`, the melting point was 130 °C.

For `Cc1cc2ncc(C#N)c(Cl)c2s1`, the melting point was 163 to 164 °C.

With `O=C(Nc1cc(-c2ccnc3c(C(=O)c4cccs4)cnn23)ccc1F)OCCCl`, the melting point was 194 to 196 °C.

Turning to `Cc1csc(C2=CCN(CCCC(=O)c3ccc(F)cc3)CC2)n1`, the melting point is 81 to 82 °C. With `CN(C)C=Cc1cccnc1C#N`, the melting point was in the range of 71.5 to 72 °C. The same measure for `O=C(O)c1ccc2c(c1)CCCS2(=O)=O`: 246 to 249 °C; for `O=S(=O)(NCC1CCN(C[C@H]2COc3ccc(Cl)cc3O2)CC1)c1ccc(F)cc1F`: 119 to 121 °C; for `O=C(O)C(=O)Nc1coc2ccc(Cl)cc2c1=O`: 213 to 215 °C. As to `N#Cc1cc(Cn2cncn2)cc(-c2ccc(O)cc2)c1`, the melting point was in the range of 186 to 187 °C. The same measure for `C=CCc1cc(OCC(=O)OCC)ccc1O`: 52.8 °C; for `O=C(Oc1ccccc1)N1CCC(S(=O)(=O)c2ccccc2)C1` (centres undefined): 84 to 85 °C.

As to `CCCCCCCCCCCCCCc1ccc(O)cc1`, the melting point is 70 to 71 °C. Next, `C=CCC(CC1CC2CCN1CC2)(c1ccccc1)c1ccccc1` (centres undefined): 95.5 to 98 °C; `N#Cc1cc(F)c(N(CCO)CCO)c(F)c1`: 63 to 65 °C; `Cc1nc2cccc(CNC(=O)OC(C)(C)C)c2c(=O)n1C1CCC(=O)NC1=O` (centres undefined): 206 to 208 °C. The same measure for `Cc1cc2ncnn2nc1OCCOCCN1CCN(C(c2ccccc2)c2ccccc2)CC1`: 71 to 72 °C; for `Cc1cc(C(O)(CNC(=O)c2ccc(Cl)cc2)C(F)(F)F)ccc1NC(=O)OC(C)(C)C` (centres undefined): 160 to 162 °C.

Compound `FC(F)c1ncnc(-c2ccc(Cl)cc2Cl)c1Cl` displayed a melting point of 55 to 56 °C.

Consider `CC(=O)c1ccc2nc(-n3ccnc3)nc(NCCOCCO)c2c1`, for which the melting point lay within 164 to 166 °C.

The compound `NCC1CCc2[nH]c3ccc(Cl)cc3c2C1` (centres undefined) registered a melting point of 142 to 144 °C. `COc1ccc2c(c1)OCC(NC(=O)c1cc(Cl)ccc1OC)C2` (centres undefined): the melting point was in the range of 92 to 93 °C. Next, `Cn1cc(-c2cc3cccnc3[nH]2)c2cc(C(=O)NC(CO)(CO)CO)ccc21`: 205 to 206 °C. The same measure for `CCOC(=O)CNc1ncccc1NC(=O)c1ccccn1`: 98 to 100 °C. In turn, `CCOC(=O)C1=CC(C2CC2)c2nc3cc(F)c(F)cc3nc2C1=O` (centres undefined) came in with a melting point of 230 °C. Next, `COC(=O)c1cccc(NC(=O)NCC(=O)N(CC(=O)N2CCCC2)c2ccccc2C(=O)c2ccccc2)c1`: 189 to 194 °C; `NS(=O)(=O)c1cc(CCNC(=O)/C=C/c2cccs2)ccc1OCCOC(F)(F)F`: 203 to 205 °C. In turn, `Brc1ccc(-c2cnc(COCc3cc4ccccc4o3)o2)cc1` registered a melting point of 80 to 82 °C. Turning to `CC(C)(CNc1ccc(C2=NNC(=O)CC2)cc1)[N+](=O)[O-]`, the melting point was in the range of 220 to 222 °C. The same measure for `CCOc1nn(Cc2ccc(OCc3nc(-c4ccco4)oc3C)c(OC)c2)cc1CCC(=O)O`: 133 to 134 °C; for `CCC(C)OC(=O)C(Br)=CC1C(C(=O)OC(C#N)c2cccc(Oc3ccccc3)c2)C1(C)C` (centres undefined): 76 °C. Turning to `CCn1nc(-c2ccccc2)c(C(C)=O)c(Nc2cccc3ncccc23)c1=O`, the melting point was in the range of 220 to 221 °C. The compound `CCOC(=O)c1nc(C2CC2)nc(NCc2ccccc2)c1Cl` returned a melting point of 59 to 61 °C. `CCOC(=O)CC12CC(c3ccccc31)c1ccccc12`: the melting point was 81 to 84 °C. `COC1(c2ccc(Sc3ccc(C(=O)c4ccc(C(F)(F)F)cc4)cc3)s2)CCOCC1` displayed a melting point of 86 to 87 °C.

The compound `Cc1ccc2cc(-c3cccc4ccccc34)nc(N3CCN(C)CC3)c2c1` displayed a melting point of 150 °C. In the case of `Oc1nc(-c2ccc(F)cc2)sc1-c1ccccc1`, the melting point fell in the range of 231 to 233 °C.

Regarding `CN(C)S(=O)(=O)c1cc2c(c(Cl)c1Cl)OC(C(=O)O)C2` (centres undefined), the melting point was 154 °C.

The compound `CCN1Cc2ccccc2N(CC)C(Nc2nc(Nc3cc4c(cc3OC)CCN(CC(=O)N(C)C)CC4)ncc2Cl)C1` (centres undefined) returned a melting point of 85 to 90 °C. The same measure for `C#Cc1cnn2c(C(F)(F)F)cc(-c3ccc(Cl)cc3)nc12`: 102 to 103 °C. The same measure for `CN1N=C(c2ccccc2Cl)N(C)N=C1c1ccccc1Cl`: 148 to 149 °C; for `Cc1cc(SCCSCC(=O)O)ccc1O`: 86 °C; for `CC(=O)Nc1ccn([C@@H]2CC[C@H](OC(C)=O)[C@@H](OC(C)=O)[C@H]2OC(C)=O)c(=O)n1` (racemic): 226 °C. The same measure for `N=C(Nc1ccc(F)cc1)Nc1ncccc1OCc1c(F)cccc1Cl`: 152 to 154 °C.

With `CS(=O)(=O)N(Cc1ccc(C(F)(F)F)cc1)CC(O)(Cn1cncn1)c1ccc(Cl)cc1Cl` (centres undefined), the melting point was 139 to 141 °C. The compound `Cc1cc(SC2=C(O)CC(CCC(C)C)(C3CCCC3)OC2=O)c(C(C)(C)C)cc1CO` (centres undefined) registered a melting point of 74 to 77 °C. The same measure for `CC(C)(C)Oc1ccc(CCC(=O)NCCC(=O)O)cc1`: 70 to 72 °C; for `CC1(C)C(=O)Nc2ccc(-c3ccc(C#N)[nH]3)cc21`: 256 to 258 °C; for `CC(C)(Oc1ccc(OCCCCc2cc(-c3ccc(C(F)(F)F)cc3)no2)cc1)C(=O)O`: 103 to 104 °C. Next, `O=C(O)COCc1cccc(-c2ccccc2OC2OC(CO)C(O)C(O)C2O)c1` (centres undefined): 77 to 78 °C. In turn, `COc1ccc(-c2cc(Cl)cc3c2OC(C(F)(F)F)C(C(=O)O)=C3)cc1` (centres undefined) returned a melting point of 194 to 196 °C. In turn, `COc1ccsc1C(=O)C=C(C)C` returned a melting point of 49 to 51 °C.

`O=C(Nc1nc(C(F)(F)F)c(Br)s1)c1ccc(Cl)c(Cl)c1` gave a melting point of 191 to 192 °C. Compound `Nc1ccc2c(c1)C(=O)C1(CC1)S2` had a melting point of 148 to 150 °C. `N#Cc1ccc(N(Cc2ccc(OS(N)(=O)=O)c(F)c2)n2cnnc2)cc1-c1ccccc1`: the melting point is 198 to 200 °C. On to `Nc1cccc(CCC(=O)Nc2ccc(Nc3ccccc3)cc2)c1`, for which the melting point lay in the range of 164 to 166 °C.

Turning to `CCOC(=O)C(C#N)=CNc1ccc(C=C(C#N)C(=O)OCC)o1`, the melting point was 206 to 208 °C.

The compound `CN(Cc1cc(C(F)(F)F)cc(C(F)(F)F)c1)C(=O)c1cnc(CC#N)nc1-c1ccccc1` returned a melting point of 114 to 116 °C.
